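Growth conditions: 96-well plates. Treatment: test compound, 48 hours, 5 concentrations. Analysis: linear interpolation between bracketing concentrations; unreached endpoints set to highest concentration. At the TGI there is no net growth.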

Among the data in PubChem BioAssay (NCI) are TGI values, retold here.

Among the test systems are SK-MEL-28 melanoma; SF-539 CNS; M14 melanoma; UO-31 renal; MDA-N; NCI-H23 lung; SF-295 CNS; LOX IMVI melanoma; T-47D breast; KM12 colon; EKVX NSCLC; SR leukemia; A549 NSCLC; PC-3 prostate; IGROV1 ovarian; HCT-116 colon; NCI-H522 lung; SK-MEL-2 melanoma.
Assay in all cases: inhibition of tumour cell growth, NCI panel, 48 h

Turning to `CCCN(CCC)c1cc2c(cc1F)c(=O)c(C(=O)O)cn2-c1ccc(N2CCN(C)CC2)cn1`, the TGI worked out at 36.5 µM with SK-MEL-28 melanoma; 32.6 µM with SF-539 CNS; 32.1 µM in the assay with M14 melanoma; 32.2 µM in the assay on UO-31 renal; 40.1 µM with MDA-N; 35 µM with NCI-H23 lung. The TGI in the assay on SF-295 CNS is 33.6 µM; in the assay with LOX IMVI melanoma it was 9.65 µM; in the assay on T-47D breast, 38.8 µM; with KM12 colon, 30.3 µM; in the assay with EKVX NSCLC it was 34.2 µM; in the assay with SR leukemia it was 35.9 µM. Moreover, the TGI was 34 µM in the assay with A549 NSCLC; 39.3 µM with PC-3 prostate; 27.6 µM in the assay with IGROV1 ovarian; 28.9 µM with HCT-116 colon; 24.9 µM with NCI-H522 lung.
As for `COc1ccc(C2CC(c3ccc4ccccc4c3O)=NN2C(C)=O)cc1OC` (stereo not drawn), the TGI in the assay on SK-MEL-2 melanoma, in the assay on SK-MEL-28 melanoma, in the assay on SF-539 CNS, in the assay with M14 melanoma, with UO-31 renal and in the assay on MDA-N was greater than 100 µM throughout. Moreover, the TGI with NCI-H23 lung, with SF-295 CNS, in the assay with T-47D breast, with KM12 colon, in the assay on SR leukemia and in the assay with A549 NSCLC was greater than 100 µM throughout. Also, the TGI with PC-3 prostate, in the assay with IGROV1 ovarian, with HCT-116 colon and in the assay with NCI-H522 lung was greater than 100 µM each time.
As to `CN(C)CCCNc1ccnc2cc([N+](=O)[O-])ccc12`, the TGI with SK-MEL-2 melanoma came out at 29.7 µM; in the assay on SK-MEL-28 melanoma, 97.5 µM; in the assay with SF-539 CNS, 31.9 µM; in the assay on M14 melanoma, 24.4 µM; with UO-31 renal, 44.8 µM; with MDA-N, 25.7 µM. The TGI was 25.4 µM in the assay with NCI-H23 lung; 54.9 µM with SF-295 CNS; 24.6 µM in the assay on LOX IMVI melanoma; 35.8 µM in the assay on T-47D breast; 26.4 µM in the assay with KM12 colon; greater than 100 µM in the assay with SR leukemia. Besides, the TGI in the assay on A549 NSCLC was 60.6 µM; in the assay with PC-3 prostate, 42.4 µM; with IGROV1 ovarian, 12.8 µM; with HCT-116 colon, 23.7 µM; in the assay with NCI-H522 lung, 16.3 µM.
`Cn1c(=O)c2c(nc(N)n2C2OC(CO)C(O)C2O)n(C)c1=O` (stereo not drawn): the TGI in the assay on SK-MEL-28 melanoma, in the assay with SF-539 CNS, in the assay on M14 melanoma, in the assay on UO-31 renal, in the assay with MDA-N and with NCI-H23 lung was greater than 100 µM in each case. In addition, the TGI with SF-295 CNS, in the assay with LOX IMVI melanoma, in the assay on T-47D breast, with KM12 colon, in the assay on EKVX NSCLC and in the assay on SR leukemia was greater than 100 µM each time. In addition, the TGI in the assay on A549 NSCLC, in the assay with PC-3 prostate, in the assay on IGROV1 ovarian, in the assay with HCT-116 colon and in the assay on NCI-H522 lung was greater than 100 µM in each case.
As to `O=C1C[C@@H](Sc2ccccc2)C2(OCCO2)[C@H]2ON3CCC[C@@H]3[C@@H]12`, the TGI in the assay with SK-MEL-2 melanoma is 13.3 µM; with SK-MEL-28 melanoma, 23 µM; in the assay with SF-539 CNS, 19.8 µM; in the assay on M14 melanoma, 4.58 µM; in the assay on UO-31 renal, 4.12 µM; with MDA-N, 6.97 µM. The TGI was found to be 17.9 µM in the assay with NCI-H23 lung; 26.7 µM with SF-295 CNS; 11.8 µM with LOX IMVI melanoma; 8.75 µM in the assay with T-47D breast; 18.4 µM in the assay with KM12 colon; 10.4 µM in the assay with SR leukemia. In addition, the TGI came out at 26.3 µM in the assay on A549 NSCLC, 20.6 µM with PC-3 prostate, 4.87 µM in the assay with IGROV1 ovarian and 2.99 µM in the assay on HCT-116 colon.
For `O=C(/C=C\c1ccccc1)Oc1ccc(/C=C2\CCCCC2=O)cc1`, the TGI with SK-MEL-2 melanoma, in the assay with SK-MEL-28 melanoma, in the assay with SF-539 CNS, with M14 melanoma, in the assay with UO-31 renal and with MDA-N was greater than 100 µM throughout. Besides, the TGI in the assay on NCI-H23 lung, with SF-295 CNS, in the assay with LOX IMVI melanoma, in the assay on T-47D breast, in the assay with KM12 colon and with EKVX NSCLC was greater than 100 µM each time. In addition, the TGI with A549 NSCLC, in the assay with PC-3 prostate, in the assay with IGROV1 ovarian, in the assay on HCT-116 colon and in the assay with NCI-H522 lung was greater than 100 µM each time.
As for `COCOCC1CCCN1CN1CCC[C@H]1COCOC` (stereo partly drawn), the TGI in the assay on SK-MEL-2 melanoma, in the assay with SK-MEL-28 melanoma, with M14 melanoma, in the assay with UO-31 renal, in the assay with MDA-N and in the assay with NCI-H23 lung was greater than 100 µM throughout. Besides, the TGI in the assay with SF-295 CNS, with T-47D breast, in the assay on KM12 colon, in the assay on EKVX NSCLC, in the assay with SR leukemia and in the assay with A549 NSCLC was greater than 100 µM each time. Besides, the TGI in the assay with PC-3 prostate, in the assay on IGROV1 ovarian, in the assay on HCT-116 colon and with NCI-H522 lung was greater than 100 µM throughout.
As for `Cc1cc(S(=O)(=O)NC2=NC(c3ccccc3)c3ccccc3N2)c(S)cc1Cl` (stereo not drawn), the TGI is greater than 100 µM with SK-MEL-28 melanoma; greater than 100 µM in the assay on SF-539 CNS; greater than 100 µM with M14 melanoma; 46.5 µM with UO-31 renal; greater than 100 µM in the assay with MDA-N; greater than 100 µM in the assay on NCI-H23 lung. Also, the TGI in the assay on SF-295 CNS is greater than 100 µM; with LOX IMVI melanoma, greater than 100 µM; with T-47D breast, greater than 100 µM; with KM12 colon, greater than 100 µM; with EKVX NSCLC, greater than 100 µM; in the assay with SR leukemia, 58.3 µM. For the same compound, the TGI in the assay with A549 NSCLC is greater than 100 µM; with PC-3 prostate, 80.9 µM; in the assay with IGROV1 ovarian, greater than 100 µM; in the assay on HCT-116 colon it was greater than 100 µM; with NCI-H522 lung, greater than 100 µM.
